# Measured values published in patent US20200255844A1, “MULTIPLEXED RECEPTOR-LIGAND INTERACTION SCREENS” (THE REGENTS OF THE UNIVERSITY OF CALIFORNIA, priority 2017, published 2020).
# Experiments:
# Type in all cases: cell-based, mouse
# MOR5-1 = test: High-throughput multiplexed odorant screening (Smell-seq), 96-well, barcode RNA-seq readout; settings: OR MOR5-1; pair called as hit, FDR=1%
# Method: (§1) 10. High-Throughput Odorant Screening
# (§2) The OR library cell line was thawed from a liquid nitrogen frozen stock into a T-225 flask (Corning) three days before seeding into a 96-well plate for screening. The library was seeded at 6,666 cells per well in 100 ul of DMEM. 24 hours later a working concentration of 1 ug/ml of doxycycline in DMEM was added to the wells. 24 hours after induction, the media was removed from each plate and replaced with 25 ul of odorant diluted in OptiMEM. Each odor was added at three different concentrations (10 uM, 100 uM, 1 mM) in triplicate with the same amount of final DMSO (1%). Each plate contained two control odorants at a three concentration (10 uM, 100 uM, 1 mM) in triplicate and three wells containing 1% DMSO dissolved in media. The library was incubated with odorants for three hours in a cell culture incubator with the lids removed.
# (§3) After odor incubation, media was pipetted out of the plates and cells were lysed by adding 25 uL of ice-cold Cells-to-cDNA II Lysis Buffer (Thermo Fisher) and pipetting up and down to homogenize and lyse cells. The lysate was then heated to 75° C. for 15 minutes and flash frozen with liquid nitrogen and kept at −80 C until further processing. Then 0.5 uL DNase I (New England Biolabs) was added to lysate, and incubated at 37° C. for 15 minutes. To anneal the RT primer, 5 ul of lysate from each well was combined with 2.5 ul of 10 mM dNTPs (New England Biosciences), 1 ul of 2 uM gene specific RT primer (OL003), and 1.5 ul of H2O. The reaction was heated to 65° C. for 5 min and cooled back down to 0° C. After annealing, 1 ul of M-MuLV Reverse Transcriptase (Enzymatics), 1 ul of buffer, and 0.25 ul of RNase Inhibitor (Enzymatics) were added to each reaction. Reactions were incubated at 42° C. for 60 min and the RT enzyme was heat inactivated at 85° C. for 10 min.
# (§4) For each batch, qPCR was performed on a few wells (OL005F and OL013) with SYBR FAST qPCR Mastermix to determine the number of cycles necessary for PCR based library preparation. The reaction and cycling conditions are optimized as follows: 95° C. for 3 minutes, 40 cycles of 95° C. for 3 seconds and 60° C. for 20 seconds. After qPCR, 5 ul of each RT reaction was combined with 0.4 ul of 10 uM primers containing sequencing adaptors (OL005F and OL013), 10 ul of NEB-Next Q5 Mastermix (New England Biosciences) and 4.2 ul H2O, the PCR was carried out according to the manufacturer's protocol. The forward primer contains the P7 adaptor sequence and an index identifying the well in the assay and the reverse primer contains the P5 adaptor sequence and an index identifying the plate in the assay. PCR products were pooled together by plate and purified with the DNA Clean and Concentrator Kit. Library concentrations were quantified using a Tape Station 2200 and a Qubit (Thermo Fisher). The libraries were sequenced with two index reads and a single end 75-bp read on a NextSeq 500 in high-output mode (Illumina).
# (§5) 11. Analysis of Next-Generation Sequencing Data
# (§6) Samples were identified via indexing by their PCR indexes adapters unique for each well (5′ end) and unique for each plate (3′ end). The well barcodes followed the 7 bp indexing scheme in (Illumina Sequencing Library Preparation for Highly Multiplexed Target Capture and Sequencing Matthias Meyer, Martin Kircher, Cold Spring Harb Protoc; 2010; doi:10.1101/pdb.prot5448). The plate indexing scheme followed the Illumina indexing scheme. Sequencing data was demultiplexed and 15 bp barcode sequences were counted with only exact matches by custom python and bash scripts.
# (§7) 12. Statistical Methods for Calling Hits
# (§8) Count data was then analyzed using the differential expression package EdgeR. To filter out ORs with low representation, we set a cutoff that an OR had to contain at least 0.5% of the reads from more than 399 of the 1954 test samples. This filtered out 3 of 42 ORs which were underrepresented in the cell library (MOR172-1, MOR176-1 and MOR181-1). […]
# MOR23-1 = test: High-throughput multiplexed odorant screening (Smell-seq), barcode RNA-seq readout; settings: OR MOR23-1; pair called as hit, FDR=1%
# Excerpt: (§9) We subsequently screened 182 odorants at three concentrations in triplicate against the OR cell library, the equivalent of ˜85,000 individual luciferase assays including controls (FIG. 10A, Table 2). Each 96-well plate in the assay contained positive control odorants and solvent DMSO wells for normalization (FIG. 16). We used the EdgeR software package to determine differentially responsive ORs based on a negative binomial model of barcode counts. We found 114 OR-odorant interactions (out of 7,200 possible), 81 of which are novel, and 24 interactions with 15 orphan receptors (FIG. 10C, FIG. 17 and Supplementary Table 4) (FDR=1%; Benjamini-Hochberg correction). Overall 28 of 39 receptors were activated by at least one odorant, and 68 of 182 odorants activated at least one OR (Table 4). We chose 37 interactions of at least 1.2 fold induction to test individually with a previously developed transient OR assay that has several important differences (FIG. 18). Of the 28 interactions called as hits at an FDR of 1%, 21 of them replicated in this orthogonal system (FIG. 17). […] Conversely, we also detect 14 interactions that this previous study tested, but called negative.
# MOR25-1 = test: as above; settings: OR MOR25-1; pair called as hit, FDR=1%
# Excerpt: as §9
# MOR30-1 = test: as above; settings: OR MOR30-1; pair called as hit, FDR=1%
# Excerpt: as §9
# MOR139-1 = test: as above; settings: OR MOR139-1; pair called as hit, FDR=1%
# Excerpt: as §9
# MOR136-1 = test: as above; settings: OR MOR136-1; pair called as hit, FDR=1%
# Excerpt: as §9
# MOR170-1 = test: High-throughput multiplexed odorant screening (Smell-seq), 96-well, barcode RNA-seq readout; settings: OR MOR170-1; pair called as hit, FDR=1%
# Method: as §1, §2, §3, §4, §5, §6, §7, §8
# MOR189-1 = test: High-throughput multiplexed odorant screening (Smell-seq), barcode RNA-seq readout; settings: OR MOR189-1; pair called as hit, FDR=1%
# Excerpt: as §9
# Olfr62 = test: as above; settings: OR Olfr62; pair called as hit, FDR=1%
# Excerpt: as §9
# MOR131-1 = test: as above; settings: OR MOR131-1; pair called as hit, FDR=1%
# Excerpt: as §9
# MOR13-1 = test: High-throughput multiplexed odorant screening (Smell-seq), 96-well, barcode RNA-seq readout; settings: OR MOR13-1; pair called as hit, FDR=1%
# Excerpt: We find that chemicals with similar features activate similar sets of ORs, including those receptors we deorphanize in this study. For example, the previously orphan MOR13-1 is activated by four chemicals with polar groups attached, in three cases, to stiff non-rotatable scaffolds. Another example is, MOR19-1, which has clear affinity for the salicylate functional group. To better understand how chemical similarity relates to receptor activation without relying on incomplete and sometimes arbitrary chemical descriptors, we used a previously validated computational autoencoder to represent each chemical in a ˜292 dimensional latent space, allowing nearly lossless compression of chemical structure (Data not shown). We find chemicals that activate the same OR tend to cluster distinctly (FIG. 10D, FIG. 20). […] Many, but not all of the receptors. […] Understanding the space of chemicals that activates each OR establishes the groundwork for prediction of novel odorant-OR interactions.
# as §1, §2
# After odor incubation, media was pipetted out of the plates and cells were lysed by adding 25 uL of ice-cold Cells-to-cDNA II Lysis Buffer (Thermo Fisher) and pipetting up and down to homogenize and lyse cells. The lysate was then heated to 75° C. for 15 minutes and flash frozen with liquid nitrogen and kept at −80 C until further processing. Then 0.5 uL DNase I (New England Biolabs) was added to lysate, and incubated at 37° C. for 15 minutes. […]
# For each batch, qPCR was performed on a few wells (OL005F and OL013) with SYBR FAST qPCR Mastermix to determine the number of cycles necessary for PCR based library preparation. […] Library concentrations were quantified using a Tape Station 2200 and a Qubit (Thermo Fisher). The libraries were sequenced with two index reads and a single end 75-bp read on a NextSeq 500 in high-output mode (Illumina). […]
structure (smiles),measurement,setting,value
CCCCCCCCC(=O)O [Nonanoic Acid],Minimum Activating Concentration,MOR5-1,100 µM
same,Minimum Activating Concentration,MOR23-1,1000 µM
same,Minimum Activating Concentration,MOR25-1,1000 µM
same,Minimum Activating Concentration,MOR30-1,100 µM
CC(C)=CCC/C(C)=C\COC(=O)C(C)C [Neryl isobutyrate],Minimum Activating Concentration,MOR139-1,1000 µM
CCCCCC1=C(C)CCC1=O [Dihydrojasmone],Minimum Activating Concentration,MOR139-1,1000 µM
"C=C(C)C1CCC(C)C(O)C1 (single isomer, unassigned; (-)) [(−)-Dihydrocarveol]",Minimum Activating Concentration,MOR136-1,1000 µM
same,Minimum Activating Concentration,MOR139-1,1000 µM
CC(=O)OCCc1ccccc1 [2-Phenethyl acetate],Minimum Activating Concentration,MOR170-1,1000 µM
CCC(C)c1nccnc1OC (stereo not drawn) [2-sec-Butyl-3-methoxypyrazine],Minimum Activating Concentration,MOR139-1,1000 µM
O=C(O)CCCCCBr [6-Bromohexanoic acid],Minimum Activating Concentration,MOR5-1,1000 µM
same,Minimum Activating Concentration,MOR23-1,100 µM
c1ccc2ncccc2c1,Minimum Activating Concentration,MOR170-1,100 µM
same,Minimum Activating Concentration,MOR189-1,1000 µM
same,Minimum Activating Concentration,MOR139-1,100 µM
same,Minimum Activating Concentration,Olfr62,1000 µM
C/C=C/C(=O)C1=C(C)CCCC1(C)C [beta-Damascone],Minimum Activating Concentration,MOR189-1,1000 µM
"CCC(=O)C(=O)CC [3,4-Hexanedione]",Minimum Activating Concentration,MOR131-1,1000 µM
CCCCCCCCC=O [Nonanal],Minimum Activating Concentration,MOR5-1,1000 µM
same,Minimum Activating Concentration,MOR23-1,1000 µM
same,Minimum Activating Concentration,MOR30-1,1000 µM
CC(C)=C1CC[C@@H](C)CC1=O [(+)-Pulegone],Minimum Activating Concentration,MOR139-1,1000 µM
O=C1Cc2ccccc2O1 [2-coumaranone],Minimum Activating Concentration,Olfr62,1000 µM
C=CCc1ccc(OC)c(OC)c1 [Eugenol methyl ether],Minimum Activating Concentration,MOR170-1,10 µM
same,Minimum Activating Concentration,MOR189-1,1000 µM
same,Minimum Activating Concentration,MOR139-1,1000 µM
CCc1ccc(O)cc1 [4-Ethylphenol],Minimum Activating Concentration,MOR170-1,1000 µM
CCCCCCC(Br)C(=O)O (stereo not drawn) [2-Bromooctanoic acid],Minimum Activating Concentration,MOR5-1,1000 µM
same,Minimum Activating Concentration,MOR23-1,1000 µM
OCC=Cc1ccccc1 [Cinnamyl alcohol],Minimum Activating Concentration,MOR170-1,1000 µM
O=C1CCOc2ccccc21 [4-Chromanone],Minimum Activating Concentration,MOR170-1,100 µM
same,Minimum Activating Concentration,MOR189-1,1000 µM
same,Minimum Activating Concentration,MOR139-1,1000 µM
CCCCC(Br)C(=O)O (stereo not drawn) [2-Bromohexanoic acid],Minimum Activating Concentration,MOR170-1,1000 µM
same,Minimum Activating Concentration,MOR5-1,1000 µM
C=C(C)[C@@H]1CC[C@@H](C)C(=O)C1 [(+)-Dihydrocarvone],Minimum Activating Concentration,MOR139-1,1000 µM
CCCCCCCC=O [Octanal],Minimum Activating Concentration,MOR5-1,1000 µM
same,Minimum Activating Concentration,MOR23-1,100 µM
CC/C=C\CCCCC=O [cis-6-Nonenal],Minimum Activating Concentration,MOR5-1,1000 µM
CC12CCC(CC1=O)C2(C)C (stereo not drawn) [(+)-Camphor],Minimum Activating Concentration,MOR136-1,100 µM
O=C(c1ccccc1)c1ccccc1 [Benzophenone],Minimum Activating Concentration,Olfr62,1000 µM
CCCCCCC=O [Heptanal],Minimum Activating Concentration,MOR23-1,1000 µM
CCCCCCCCCC=O [Decanal],Minimum Activating Concentration,MOR25-1,1000 µM
same,Minimum Activating Concentration,MOR30-1,100 µM
COc1ccc(C=O)cc1 [Anisaldehyde],Minimum Activating Concentration,MOR170-1,1000 µM
O=Cc1ccc2c(c1)OCO2 [Piperonal],Minimum Activating Concentration,MOR170-1,1000 µM
same,Minimum Activating Concentration,Olfr62,1000 µM
"C=C(C)C1CC=C(C=O)CC1 (single isomer, unassigned; (-)) [(−)-Perillaaldehyde]",Minimum Activating Concentration,MOR131-1,1000 µM
CCCC=O [Butanal],Minimum Activating Concentration,MOR139-1,1000 µM
CCc1ccccc1O [2-Ethylphenol],Minimum Activating Concentration,MOR136-1,100 µM
O=C(O)C1CCC1 [Cyclobutanecarboxylic acid],Minimum Activating Concentration,MOR13-1,1000 µM
C=CCc1ccc(O)c(OC)c1 [Eugenol],Minimum Activating Concentration,MOR139-1,1000 µM
"C=C(C)C1CCC(C)C(O)C1 (single isomer, unassigned; (+)) [(+)-Dihydrocarveol]",Minimum Activating Concentration,MOR136-1,1000 µM
CC(=O)/C=C/C1=C(C)CCCC1(C)C [beta-ionone],Minimum Activating Concentration,MOR189-1,1000 µM
same,Minimum Activating Concentration,MOR139-1,1000 µM
CCCCCCCCCC(=O)O [Decanoic-Acid],Minimum Activating Concentration,MOR5-1,1000 µM
same,Minimum Activating Concentration,MOR25-1,100 µM
same,Minimum Activating Concentration,MOR30-1,10 µM
CCCCCCO [1-hexanol],Minimum Activating Concentration,MOR131-1,1000 µM
C/C=C(\C)C=O [trans-2-Methyl-2-butenal (2MB)],Minimum Activating Concentration,MOR13-1,1000 µM
CCCCC/C=C\CCC=O [cis-4-Decenal],Minimum Activating Concentration,MOR5-1,1000 µM
CNc1ccccc1C(=O)OC [Dimethyl anthranilate],Minimum Activating Concentration,MOR170-1,10 µM
same,Minimum Activating Concentration,MOR139-1,1000 µM
COc1cc(C=O)ccc1O [Vanillin],Minimum Activating Concentration,MOR170-1,1000 µM
"C=C(C)C1CC=C(C)C(=O)C1 (single isomer, unassigned; (-)) [(−)-Carvone]",Minimum Activating Concentration,MOR25-1,1000 µM
CC(=O)OCc1ccccc1 [Benzyl acetate],Minimum Activating Concentration,MOR170-1,1000 µM
